Paper PMC11901902, “Design, Synthesis, and Cytotoxicity Evaluation of Novel Indolin-2-One Based Molecules on Hepatocellular Carcinoma HepG2 Cells as Protein Kinase Inhibitors” (Molecules, 2025)
Read-outs that look alike come from different tables or passages of the source.

Experiments:
HepG-2 cells = experiment: MTT cytotoxicity assay on HepG-2 cells; format: cell-based, human; conditions: Homo sapiens, HepG2; for viability at 1.25 µM: HepG-2, 1.25 µM; for viability at 1.25 µM / viability at 2.5 µM / viability at 5 µM / viability at 10 µM / viability at 20 µM / viability at 40 µM / viability at 80 µM / viability at 160 µM: Table S1; for viability at 2.5 µM: HepG-2, 2.5 µM; for viability at 5 µM: HepG-2, 5 µM; for viability at 10 µM: HepG-2, 10 µM; for viability at 20 µM: HepG-2, 20 µM; for viability at 40 µM: HepG-2, 40 µM; for viability at 80 µM: HepG-2, 80 µM; for viability at 160 µM: HepG-2, 160 µM; for IC50: MTT, 24 h treatment, mean of three experiments ± SEM
Protocol: (§1) Cytotoxic activity of the synthesized compounds was evaluated against HepG-2 and MCF-7 cancer cell lines using the MTT assay. The tested cell lines were obtained from the American Type Culture Collection (ATCC, […], USA) through the Tissue Culture Unit, The Egyptian Organization for Biological Products and Vaccines (Vacsera, Giza, Egypt). Indirubin, chemicals, and solvents were purchased from Sigma-Aldrich (St. Louis, MO, USA). The cells were grown on RPMI-1640 medium supplemented with 10% inactivated fetal calf serum and 50 µg/mL gentamycin. The cells were maintained at 37 °C in a humidified atmosphere with 5% CO2 and were sub-cultured two to three times per week. For antitumor assays, the tumor cell lines were suspended in the medium at concentration 5 × 10^4 cell/well in Corning® 96-well tissue culture plates (Corning, Corning, NY, USA), then incubated for 24 h. The tested molecules were then added to 96-well plates (six replicates) to achieve six concentrations for each compound. Six vehicle controls with media or 0.5% DMSO were run for each 96-well plate as a control. After incubating for 24 h, the numbers of viable cells were determined by the MTT test. Briefly, the media was removed from the 96 well plate and replaced with 100 µL of fresh culture RPMI 1640 medium without phenol red then 10 µL of the 12 mM MTT stock solution (5 mg of MTT in 1 mL of PBS) to each well including the untreated controls. The 96-well plates were then incubated at 37 °C and 5% CO2 for 4 h. An 85 µL aliquot of the media was removed from the wells, and 50 µL of DMSO was added to each well, mixed thoroughly with the pipette, and incubated at 37 °C for 10 min. Then, the optical density was measured at 590 nm with the microplate reader (SunRise, TECAN, Inc., Morrisville, NC, USA) to determine the number of viable cells, and the percentage of viability was calculated as […], where ODt is the mean optical density of wells treated with the tested sample and ODc is the mean optical density of untreated cells. The relation between surviving cells and drug concentration was plotted to obtain the survival curve of each tumor cell line after treatment with the specified compound. […] Each concentration was repeated four times.

MCF-7 cells = experiment: MTT cytotoxicity assay on MCF-7 cells; format: cell-based; conditions: Homo sapiens, MCF7; for viability at 1.25 µM: MCF-7, 1.25 µM; for viability at 2.5 µM: MCF-7, 2.5 µM; for viability at 5 µM: MCF-7, 5 µM; for viability at 10 µM: MCF-7, 10 µM; for viability at 20 µM: MCF-7, 20 µM; for viability at 40 µM: MCF-7, 40 µM; for viability at 80 µM: MCF-7, 80 µM; for viability at 160 µM: MCF-7, 160 µM
Protocol: as §1

[1] = MTT, 24 h treatment, mean of three experiments ± SEM, read-out: IC50 (µM) MCF-7
[2] = Table S2, read-out: IC50 (µM) on MCF-7 cell line

Compound	viability at 1.25 µM (HepG-2 cells)	viability at 2.5 µM (HepG-2 cells)	viability at 5 µM (HepG-2 cells)	viability at 10 µM (HepG-2 cells)	viability at 20 µM (HepG-2 cells)	viability at 40 µM (HepG-2 cells)	viability at 80 µM (HepG-2 cells)	viability at 160 µM (HepG-2 cells)	IC50 (HepG-2 cells)	viability at 1.25 µM (MCF-7 cells; Table S2)	viability at 2.5 µM (MCF-7 cells; Table S2)	viability at 5 µM (MCF-7 cells; Table S2)	viability at 10 µM (MCF-7 cells; Table S2)	viability at 20 µM (MCF-7 cells; Table S2)	viability at 40 µM (MCF-7 cells; Table S2)	viability at 80 µM (MCF-7 cells; Table S2)	viability at 160 µM (MCF-7 cells; Table S2)	IC50 (MCF-7 cells; [1])	IC50 (MCF-7 cells; [2])
COc1ccc2c(c1)C(=Nc1ccc3nc[nH]c(=O)c3c1)C(=O)N2 [Compound 13, 6-(5-Methoxy-2-oxo-1,2-dihydro-indol-3-ylideneamino)-3H-quinazolin-4-one]	88.2 ± 7.4%	86.5%	75.9 ± 4.6%	61.5 ± 3.2%	40.9 ± 2.7%	26.6 ± 1.5%	7.9 ± 0.9%	3.9 ± 0.3%	18.9 ± 1.05 µM	109 ± 7.3%	108 ± 7.4%	99.6 ± 6.5%	87.6 ± 4.6%	71.9 ± 3.2%	67.6 ± 2.7%	60.8 ± 1.5%	56.8 ± 0.9%	> 100 µM	123 ± 13.2 µM
O=C1Nc2ccccc2C1=Nc1ccc(-c2nc3ccccc3c(=O)[nH]2)cc1 [Compound 18, 2-[4-(2-Oxo-1,2-dihydro-indol-3-ylideneamino)-phenyl]-3H-quinazolin-4-one]	78 ± 7.2%	75.6 ± 6.8%	73.5 ± 5.8%	55.9 ± 4.1%	40.4 ± 2.9%	24.9 ± 2.8%	4.54 ± 0.23%	1.95 ± 0.19%	82.4 ± 7.17 µM	109 ± 6.2%	92 ± 6.8%	94.2 ± 5.8%	80.8 ± 4.9%	84.8 ± 2.9%	83.8 ± 2.8%	74.3 ± 1.2%	67.9 ± 0.8%	> 100 µM	143 ± 16.2 µM
O=C1Nc2ccc(F)cc2/C1=N/c1ccc(-c2nc3ccccc3c(=O)[nH]2)cc1 [Compound 19, 2-[4-(5-Flouro-2-oxo-1,2-dihydro-indol-3-ylideneamino)-phenyl]-3H-quinazolin-4-one]	68.4 ± 6.6%	75 ± 5.3%	72.3 ± 5.9%	58.4 ± 3.5%	46.3 ± 2.4%	26.6 ± 1.7%	13.6 ± 0.8%	7.47 ± 0.2%	28.4 ± 1.26 µM	109 ± 6.6%	99.3 ± 5.3%	93.9 ± 4.9%	81.2 ± 3.9%	59 ± 2.4%	36.4 ± 1.7%	16.4 ± 1.8%	12 ± 1.2%	40.8 ± 3.24 µM	
O=C1Nc2ccc(Br)cc2C1=Nc1ccc(-c2nc3ccccc3c(=O)[nH]2)cc1 [Compound 21, 2-[4-(5-Bromo-2-oxo-1,2-dihydro-indol-3-ylideneamino)-phenyl]-3H-quinazolin-4-one]	98.3 ± 7.7%	82.5 ± 6.8%	77.8 ± 5.5%	61.4 ± 4.6%	47 ± 3.4%	23 ± 1.5%	9.33 ± 1.1%	6.14 ± 0.9%	23.7 ± 0.74 µM	103 ± 7.7%	99.6 ± 6.8%	91.6 ± 5.5%	78.2 ± 4.6%	66.3 ± 3.4%	33.2 ± 2.5%	16 ± 1.1%	10.3 ± 0.9%	33.6 ± 2.33 µM	
O=C1Nc2ccc([N+](=O)[O-])cc2C1=Nc1ccc(-c2nc3ccccc3c(=O)[nH]2)cc1 [Compound 22, 2-[4-(5-Nitro-2-oxo-1,2-dihydro-indol-3-ylideneamino)-phenyl]-3H-quinazolin-4-one]	79.2 ± 7.2%	73.3 ± 6.5%	63 ± 5.9%	48.5 ± 4.1%	38 ± 3.8%	26.1 ± 2.3%	8.22 ± 0.5%	4.17 ± 0.2%	35.8 ± 2 µM	109 ± 8%	99.6 ± 7.4%	95.3 ± 5.9%	79.1 ± 5.1%	63.6 ± 3.8%	49.9 ± 3.3%	23.5 ± 2.5%	12.9 ± 1.3%	14.9 ± 0.66 µM	
